Read-outs that look alike come from different tables or passages of the source.
Tests used:
[1] = system: P. falciparum strain NF54; assay: Blood stage antiplasmodial activity, SYBR green I flow cytometry; type: cell-based; conditions: Plasmodium falciparum, NF54, 48 h
Method: Ring-stage synchronized cultures of P. falciparum strain NF54 at 2.5% hematocrit and at approximately 1% parasitemia were incubated with test compounds or dimethyl sulfoxide (DMSO, vehicle control) in 96-well plates for 48 h at 37°C in a 5% CO2 and 5% O2 atmosphere. Stock solutions of chloroquine (positive control) and compounds 9i, 12a, and 14a were prepared in DMSO. Working solutions were prepared from the stock solutions in complete malaria culture medium (CMCM), which consists of RPMI 1640 supplemented with 25 mM HEPES, 2.4 mM L-glutamine, 50 μg/ml gentamicin, 0.5% w/v Albumax, 11 mM glucose, 1.47 mM hypoxanthine, and 37.3 mM NaHCO3. For each measurement, 5 μl of the culture (approximately 800,000 cells) were stained with the DNA-specific dye SYBR green I. After 20 min of incubation in the dark, the stained sample was analyzed by flow cytometry. Approximately 100,000 events were analyzed in each flow cytometry measurement. Two independent experiments were performed, and all samples were analyzed in triplicate.

P. berghei hepatic stage = assay: In vitro hepatic infection of Huh7 cells by luciferase-expressing P. berghei; type: cell-based; conditions: Plasmodium berghei; for inhibition at 1 µM: Huh-7, read-out: percentage of inhibition of hepatic infection; for IC50: Huh-7, hepatic stage, Huh7 cells, 48 h after infection
Method: The inhibitory activity of test compounds on in vitro hepatic infection by P. berghei was determined by comparing the parasite load in compound- and solvent-treated P. berghei-infected Huh7 cells. Infection load was assessed by measurement of luminescence intensity in Huh7 cells infected, with a firefly luciferase-expressing P. berghei line, as previously described ([Ploemen et al., 2009]; [António et al., 2017]). Briefly, Huh7 cells were seeded in 96-well plates (1.0 × 10^4 cells per well) the day before drug treatment and infection. The medium was replaced by another medium containing the appropriate concentration of each compound approximately 1 h prior to infection with sporozoites freshly obtained through disruption of salivary glands of infected female Anopheles stephensi mosquitoes. Sporozoite addition was followed by centrifugation at 1,800 g for 5 min. Parasite infection load was measured 48 h after infection by a bioluminescence assay (Biotium). Cell confluence, a surrogate measure of compound toxicity to Huh7 cells, was assessed by fluorescence measurements using the alamarBlue assay, according to the manufacturer’s instructions. […] Specifically, non-linear regression analysis was employed to fit the normalized results of the dose-response curves, and IC50 values were determined using GraphPad Prism 8.0 (GraphPad Software, La Jolla, California, United States).

[2] = Cellular viability assay (alamarBlue) in TZM-bl cells; type: cell-based; conditions: human, 50% cytotoxic concentration
Method: Before the antiviral activity screening, all spirocyclopentene-β-lactams were assayed for their in vitro cytotoxic activity (CC50) in TZM-bl cells (Table 4).
TZM-bl cells (AIDS Research and Reference Reagent Program, National Institutes of Health, United States) were cultured in complete growth medium consisting of Dulbecco’s Minimal Essential Medium (DMEM) supplemented with 10% fetal bovine serum (FBS), 100 U/ml of penicillin–streptomycin (Gibco/Invitrogen, United States), 1 mM of sodium pyruvate (Gibco/Invitrogen, United States), 2 mM of L-glutamine (Gibco/Invitrogen, United States), and 1 mM of non-essential amino acids (Gibco/Invitrogen, United States). Cell cultures were maintained at 37°C in 5% CO2.
The in vitro cytotoxicity of test compounds was evaluated in TZM-bl cells using alamarBlue cell viability reagent (Life Technologies, United States), according to the instructions of the manufacturer. The cells were cultured in the presence and absence of serial-fold dilutions of the test compounds. Each dilution of each compound was performed in triplicate wells. Medium controls (only growth medium), cell controls (cells without test compound), and cytotoxicity controls (a compound that kills cells) were employed in each assay.

HIV-1 SG3.1 = assay: microbe, parasite or virus in culture; conditions: for IC50 / IC90: 48 h; for IC90: read-out: IC90 HIV-1; for inhibition at 25 µg/mL: read-out: MPI (%) 25 μg/mL
Text: (§1) The HIV-1 SG3.1 is a reference subtype B strain that uses the CXCR4 coreceptor. It was obtained by transfection of HEK293T cells with pSG3.1 plasmid using jetPRIME transfection reagent (Polyplus-transfection SA, Illkirch, France), according to the instructions of the manufacturer.
(§2) Briefly, TZM-bl cells were infected with 200 TCID50 of HIV-1 or HIV-2 in the presence of serial-fold dilutions of the compounds in the growth medium, supplemented with diethylaminoethyl-dextran (DEAE-dextran). After 48 h of infection, luciferase expression was quantified with Pierce Firefly Luc One-Step Glow Assay Kit (ThermoFisher Scientific, Rockford, United States), according to the instructions of the manufacturer. For each compound dilution, the assay was set up in triplicate wells. Virus controls, cell controls, and inhibitors controls (drugs with a known action against each virus) were employed.

HIV-2 03PTHCC19 = assay: microbe, parasite or virus in culture; conditions: Human immunodeficiency virus 2, TZM-bl; for IC50 / IC90: 48 h; for IC50: read-out: IC50 HIV-2; for IC90: read-out: IC90 HIV-2; for inhibition at 25 µg/mL: read-out: MPI (%) 25 μg/mL
Text: as §1, §2

[3] = Human immunodeficiency virus 1, TZM-bl, read-out: IC50 HIV-1, TZM-bl cells, 48 h
[4] = Human immunodeficiency virus 1, TZM-bl
[5] = read-out: IC50 HIV-1, TZM-bl cells

Structure (SMILES)	IC50 [1] [nM]	melting point [°C]	inhibition at 1 µM (P. berghei hepatic stage) [%]	IC50 (P. berghei hepatic stage) [nM]	CC50 [2] [nM]	IC50 (HIV-1 SG3.1; [3]) [nM]	IC90 (HIV-1 SG3.1; [4]) [nM]	inhibition at 25 µg/mL (HIV-1 SG3.1; [4]) [%]	IC50 (HIV-2 03PTHCC19) [nM]	IC90 (HIV-2 03PTHCC19) [nM]	inhibition at 25 µg/mL (HIV-2 03PTHCC19) [%]	IC50 (HIV-1 SG3.1; [5]) [nM]
CC1(C)SC2N(C(=O)C23CC=C(C(=O)OCc2ccccc2)C3C(=O)c2ccc(F)cc2)C1C(=O)OC(c1ccccc1)c1ccccc1 (stereo not drawn) [Compound 12a, (1′R,2′R)-benzhydryl spiro[(2-(4-fluorobenzoyl)-3-benzyloxycarbonylcyclopent-3-ene)-1′,6-penicillanate]]	560 ± 126	64.5 to 66.5	< 50	924 ± 27	58100	19	54	93	11	55	100	–
COc1ccc(COC(=O)C2=CCC3(C(=O)N4C(C(=O)OC(c5ccccc5)c5ccccc5)C(C)(C)SC43)C2C(=O)c2ccc(F)cc2)cc1 (stereo not drawn) [Compound 14a, (1′R,2′R)-benzhydryl spiro[(2-(4-fluorobenzoyl)-3-(4-methoxybenzyloxycarbonyl)cyclopent-3-ene)-1′,6-penicillanate]]	292 ± 62	72.9 to 74.9	< 50	750 ± 107	75100	< 20	48	100	13	51	100	12
CC1(C)SC2N(C(=O)C23CC=C(C(=O)OCC=Cc2ccccc2)C3C(=O)c2ccc(F)cc2)C1C(=O)OC(c1ccccc1)c1ccccc1 (stereo not shown) [Compound 14c, (1’R,2’R)-Benzhydryl spiro[(2-(4-fluorobenzoyl)-3-cinnamyloxycarbonylcyclopent-3-ene)-1’,6-penicillanate]]	–	76.5 to 78.5	–	1000 to 10000	77600	< 20	18	100	39	103	100	15
COc1ccc(COC(=O)C2=CCC3(C(=O)N4C(C(=O)OC(c5ccccc5)c5ccccc5)C(C)(C)SC43)C2C(=O)c2ccc(Cl)cc2)cc1 (stereo not shown) [Compound 14d, (1’R,2’R)-Benzhydryl spiro[(2-(4-chlorobenzoyl)-3-(4-methoxybenzyloxycarbonyl)cyclopent-3-ene)-1’,6-penicillanate]]	–	76.1 to 78.1	–	2000 ± 458	134000	< 20	19	100	65	123	100	15
COc1ccc(COC(=O)C2=CCC3(C(=O)N4C(C(=O)OC(c5ccccc5)c5ccccc5)C(C)(C)SC43)C2C(=O)c2ccc(Br)cc2)cc1 (stereo not shown) [Compound 14g, (1’R,2’R)-Benzhydryl spiro[(2-(4-bromobenzoyl)-3-(4-methoxybenzyloxycarbonyl)cyclopent-3-ene)-1’,6-penicillanate]]	–	82.6 to 84.6	–	2590 ± 219	101000	30	99	100	87	137	100	–
